How the values were obtained:
Format in all cases: in vivo
[1] = test system: pigweed (Amaranthus retroflexus); assay: Test B pre-/postemergence plant response
In short: (§1)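 Compound in solvent + surfactant applied pre-em (loam/sand) or post-em (plants 2–18 cm, peat medium); greenhouse hold 13–15 days; visual 0–100 control score.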

[2] = test system: galium (catchweed bedstraw, Galium aparine); assay: Test B pre-/postemergence plant response; details: Preemergence
In short: as §1

[3] = test system: nightshade (eastern black nightshade, Solanum ptycanthum); assay: Test B pre-/postemergence plant response; details: Preemergence
In short: as §1

[4] = test system: wild oat (Avena fatua); assay: Test B pre-/postemergence plant response
In short: as §1

[5] = test system: sunflower (common oilseed sunflower, Helianthus annuus); assay: Test B pre-/postemergence plant response; details: Preemergence
In short: as §1

[6] = test system: ducksalad (Heteranthera limosa); assay: Test B flooded paddy test
In short: (§2)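 Ratings are visual, 0–100 (100 = complete control), taken versus untreated controls 13 to 15 days after treatment in the greenhouse. Compound went straight into paddy water held 3 cm above soil, applied to 2-leaf-stage plants of four species.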

[7] = test system: umbrella sedge (Cyperus difformis); assay: Test B flooded paddy test
In short: as §2

[8] = test system: barnyardgrass (Echinochloa crus-galli); assay: Test B flooded paddy test
In short: as §2

[9] = test system: rice (Oryza sativa); assay: Test B flooded paddy test
In short: as §2

[10] = test system: chickweed (Stellaria media); assay: Test B postemergence plant response; details: Postemergence
In short: (§3)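 Plants grown in peat/vermiculite medium were sprayed postemergence at 2–18 cm height (1- to 4-leaf stage). After 13–15 days in the greenhouse, response was rated visually against untreated controls on a 0–100 scale (0 no effect, 100 complete control).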

[11] = test system: windgrass (Apera spica-venti); assay: Test B postemergence plant response; details: Postemergence
In short: as §3

[12] = test system: winter barley (Hordeum vulgare); assay: Test B postemergence plant response; details: Postemergence
In short: as §3

[13] = test system: canarygrass (Phalaris minor); assay: Test B postemergence plant response; details: Postemergence
In short: as §3

[14] = Postemergence, 31 g ai/ha, 0 to 100 scale (0 no effect, 100 complete control)
[15] = Postemergence, 250 g ai/ha, scale 0 to 100 (0 no effect, 100 complete control), 13 to 15 days
[16] = Postemergence, 62 g ai/ha, scale 0 to 100 (0 no effect, 100 complete control)
[17] = Preemergence, 31 g ai/ha, scale 0 to 100 (0 no effect, 100 complete control)
[18] = Preemergence, 62 g ai/ha, scale 0 to 100, 0 no effect, 100 complete control
[19] = Preemergence, 125 g ai/ha, scale 0 to 100, 0 no effect, 100 complete control
[20] = Preemergence, 250 g ai/ha, 0 to 100 scale
[21] = 31 g ai/ha, scale 0 to 100 (0 no effect, 100 complete control)
[22] = 62 g ai/ha, scale 0 to 100, 0 no effect, 100 complete control
[23] = 125 g ai/ha, scale 0 to 100, 0 no effect, 100 complete control
[24] = 250 g ai/ha, flooded paddy test, visual rating on 0 to 100 scale (0 no effect, 100 complete control) after 13 to 15 days
[25] = Flood (flooded paddy test), 62 g ai/ha, scale of 0 to 100 where 0 is no effect and 100 is complete control, 13 to 15 days
[26] = 31 g ai/ha, 0 to 100 scale (0 no effect, 100 complete control)
[27] = 125 g ai/ha, scale 0 to 100 (0 no effect, 100 complete control)
[28] = 250 g ai/ha, scale 0 to 100 (0 no effect, 100 complete control), 13 to 15 days
[29] = 62 g ai/ha, scale 0 to 100 (0 no effect, 100 complete control)

**Q.** How did the “Plant response rating, Pigweed” value [1, 14] turn out when `CCCc1ncc(C(=O)C2=C(O)CCCC2=O)c(=O)n1-c1ccccc1` [Compound 217] was run?
**A.** 85

**Q.** What about the “Plant response rating, Pigweed” value [1, 15] of the same compound?
**A.** 100

**Q.** What about the “Plant response rating, Pigweed” value [1, 16] of the same compound?
**A.** 100

**Q.** And the “Plant response rating, Pigweed” value [1, 17]?
**A.** 95

**Q.** And the “Plant response rating, Pigweed” value [1, 18]?
**A.** 100

**Q.** And the “Plant response rating, Pigweed” value [1, 19]?
**A.** 100

**Q.** And the “Pigweed plant response rating” value [1, 20]?
**A.** 100

**Q.** And the “Plant response rating, Galium” value [2, 21]?
**A.** 0

**Q.** What about the “Plant response rating, Galium” value [2, 22] of the same compound?
**A.** 10

**Q.** And the “Plant response rating, Galium” value [2, 23]?
**A.** 70

**Q.** What about the “Galium plant response rating” value ([2]; 250 g ai/ha, 0 to 100 scale) of the same compound?
**A.** 90

**Q.** What about the “Plant response rating, Nightshade” value [3, 21] of the same compound?
**A.** 95

**Q.** And the “Plant response rating, Nightshade” value [3, 22]?
**A.** 100

**Q.** And the “Plant response rating, Nightshade” value [3, 23]?
**A.** 100

**Q.** And the “Nightshade plant response rating” value ([3]; 250 g ai/ha, 0 to 100 scale)?
**A.** 100

**Q.** And the “Plant response rating, Oat, Wild” value [4, 14]?
**A.** 30

**Q.** What about the “Plant response rating, Oat, Wild” value [4, 15] of the same compound?
**A.** 85

**Q.** What about the “Plant response rating, Oat, Wild” value [4, 16] of the same compound?
**A.** 40

**Q.** What about the “Plant response rating, Oat, Wild” value [4, 17] of the same compound?
**A.** 0

**Q.** What about the “Plant response rating, Oat, Wild” value [4, 18] of the same compound?
**A.** 0

**Q.** What about the “Plant response rating, Oat, Wild” value [4, 19] of the same compound?
**A.** 0

**Q.** And the “Oat, Wild plant response rating” value [4, 20]?
**A.** 0

**Q.** What about the “Plant response rating, Sunflower” value [5, 21] of the same compound?
**A.** 70

**Q.** What about the “Plant response rating, Sunflower” value [5, 22] of the same compound?
**A.** 75

**Q.** And the “Plant response rating, Sunflower” value [5, 23]?
**A.** 85

**Q.** And the “Sunflower plant response rating” value ([5]; 250 g ai/ha, 0 to 100 scale)?
**A.** 85

**Q.** What about the “Plant response rating, Flood, Ducksalad” value [6, 24] of the same compound?
**A.** 40

**Q.** What about the “Plant response rating, Ducksalad” value [6, 25] of the same compound?
**A.** 0

**Q.** And the “Plant response rating, Flood, Sedge, Umbrella” value [7, 24]?
**A.** 40

**Q.** And the “Plant response rating, Sedge, Umbrella” value [7, 25]?
**A.** 40

**Q.** What about the “Plant response rating, Flood, Barnyardgrass” value [8, 24] of the same compound?
**A.** 0

**Q.** And the “Plant response rating, Barnyardgrass” value [8, 25]?
**A.** 0

**Q.** And the “Plant response rating, Flood, Rice” value [9, 24]?
**A.** 20

**Q.** What about the “Plant response rating, Rice” value [9, 25] of the same compound?
**A.** 0

**Q.** And the “Plant response rating, Chickweed” value [10, 26]?
**A.** 75

**Q.** And the “Plant response rating, Chickweed” value [10, 27]?
**A.** 100

**Q.** What about the “Plant response rating, Chickweed” value [10, 28] of the same compound?
**A.** 100

**Q.** What about the “Plant response rating, Chickweed” value [10, 29] of the same compound?
**A.** 95

**Q.** What about the “Plant response rating, Windgrass” value [11, 26] of the same compound?
**A.** 50

**Q.** What about the “Plant response rating, Windgrass” value [11, 28] of the same compound?
**A.** 85

**Q.** What about the “Plant response rating, Windgrass” value [11, 29] of the same compound?
**A.** 50

**Q.** And the “Plant response rating, Barley” value [12, 26]?
**A.** 0

**Q.** What about the “Plant response rating, Barley” value [12, 27] of the same compound?
**A.** 10

**Q.** What about the “Plant response rating, Barley” value [12, 28] of the same compound?
**A.** 10

**Q.** And the “Plant response rating, Barley” value [12, 29]?
**A.** 5

**Q.** And the “Plant response rating, Canarygrass” value [13, 26]?
**A.** 0

**Q.** What about the “Plant response rating, Canarygrass” value [13, 27] of the same compound?
**A.** 20

**Q.** And the “Plant response rating, Canarygrass” value [13, 28]?
**A.** 20

**Q.** What about the “Plant response rating, Canarygrass” value [13, 29] of the same compound?
**A.** 20

Reference: patent US8952024B2, “Herbicidal pyrimidone derivatives” (E I du Pont de Nemours and Company, priority 2009, dated 2015)
